We go through 18 compounds from patent publication US20240140986A1, “SYNTHETIC URSOLIC ACID DERIVATIVES AND METHODS OF USE THEREOF” (REATA PHARMACEUTICALS, INC., priority 2021, published 2024).

Where two headings read alike, the source gives them in different places.

Assay [1] deals with IFNγ-induced NO production in RAW 264.7 cells. The experiment in a line: Nitric Oxide Suppression Assay (IFNγ-induced NO, Griess nitrite readout). The format is cell-based, mouse. Particulars: for IC50: Mus musculus; for Avg NO IC50 Relative to RTA402 (fold): Table 2, ratio to RTA402. In outline:
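RAW 264.7 mouse macrophages in RPMI 1640 with 0.5% FBS were pretreated 2 h with compound (0.1% DMSO final), then stimulated with 20 ng/mL IFNγ for 24 h at 37° C. Supernatant nitrite was read by Griess absorbance at 525 nm against a nitrite standard curve, normalized to DMSO-IFNγ wells; IC50 from curve fit. Viability by WST-1.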
A general note: Griess reagent forms a coloured azo dye with nitrite.

Assay [2] deals with Nrf2 / ARE-dependent luciferase in AREc32 reporter cell line. Briefly: AREc32 luciferase reporter activation (Nrf2 induction). The format is cell-based, human. Particulars: for EC (2-fold): Homo sapiens, Arec32; for Relative Avg AREc32 EC2X Relative to RTA402 (fold): ratio to RTA402. A digest of the protocol:
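EC2X is the concentration raising luminescence 2-fold above DMSO-treated cells, from a nonlinear-regression dose–response fit. Compounds (0.03–1000 nM) were applied for nineteen hours, starting one day after seeding 20,000 reporter cells per well. Luciferase was read with One-Glo reagent.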
For orientation: In a reporter assay the amount or activity of a reporter protein is the signal.

The mark [3] stands for this setting: RAW264.7, Table 3, oleanolic acid derivative analogs, read-out: Avg NO IC50.
Setting [4] is: Table 3, oleanolic acid derivative analogs, read-out: Avg ARE EC-2X.
The mark [5] stands for this setting: RAW264.7, Table 2, RAW 264.7 cells, 2 h pretreatment, 20 ng/mL interferon gamma 24 h, read-out: Avg NO IC50 (nM) (Mean ± SD).
The mark [6] stands for this setting: RAW264.7, Table 3, ursolic acid derivatives, read-out: Avg NO IC50 (nM) (Mean ± SD).
The mark [7] stands for this setting: Table 2, concentration increasing luminescence 2-fold above vehicle, 19 h treatment, read-out: Avg AREc32 EC2X (nM) (Mean ± SD).
The mark [8] stands for this setting: Table 3, ursolic acid derivatives, read-out: Avg ARE EC-2X (nM) (Mean ± SD).

One may read the IC50 as the concentration at which inhibition is half-maximal.

In the case of `CC1(C)CC[C@]2(Cn3cncn3)CC[C@]3(C)[C@H](C(=O)C=C4[C@@]5(C)C=C(C#N)C(=O)C(C)(C)[C@@H]5CC[C@]43C)[C@@H]2C1` [CC47, reference compound], in assay [1] (setting [3]), the IC50 is 1.2 nM. Besides, the EC (2-fold) in assay [2] (setting [4]) came to 10.7 nM.
In the case of `C[C@@H]1[C@H]2[C@H]3C(=O)C=C4[C@@]5(C)C=C(C#N)C(=O)C(C)(C)[C@@H]5CC[C@@]4(C)[C@]3(C)CC[C@@]2(c2nc(CN(C)C)no2)CC[C@H]1C` [Compound T8], the IC50 in assay [1] (setting [5]) and in assay [1] (setting [6]) was 3.33 ± 0.68 nM throughout. The “Avg NO IC50 Relative to RTA402 (fold)” value in assay [1] was found to be 1.59 ± 0.20 fold. Besides, the EC (2-fold) in assay [2] (setting [7]) and in assay [2] (setting [8]) was 3.72 ± 0.97 nM throughout. Moreover, in assay [2] (Table 2), the “Relative Avg AREc32 EC2X Relative to RTA402 (fold)” value was 0.321 ± 0.059 fold.
As for `CNC(=O)NC[C@]12CC[C@@H](C)[C@H](C)[C@H]1[C@H]1C(=O)C=C3[C@@]4(C)C=C(C#N)C(=O)C(C)(C)[C@@H]4CC[C@@]3(C)[C@]1(C)CC2` [Compound T26], the IC50 in assay [1] (setting [5]) and in assay [1] (setting [6]) was 5.12 ± 2.22 nM throughout. Also, in assay [1], the “Avg NO IC50 Relative to RTA402 (fold)” value is reported as 1.71 ± 0.70 fold. In addition, the EC (2-fold) in assay [2] (setting [7]) and in assay [2] (setting [8]) was 2.23 ± 0.29 nM throughout. Moreover, in assay [2] (Table 2), the “Relative Avg AREc32 EC2X Relative to RTA402 (fold)” value came to 0.177 ± 0.020 fold.
With `C[C@@H]1[C@H]2[C@H]3C(=O)C=C4[C@@]5(C)C=C(C#N)C(=O)C(C)(C)[C@@H]5CC[C@@]4(C)[C@]3(C)CC[C@@]2(F)CC[C@H]1C` [Compound T67], the IC50 in assay [1] (setting [5]) is 12.2 ± 3.5 nM. In addition, the “Avg NO IC50 Relative to RTA402 (fold)” value in assay [1] amounted to 3.79 ± 1.16 fold. Also, the EC (2-fold) in assay [2] (setting [7]) turned out to be 11.5 ± 1.6 nM. In assay [2] (Table 2), the “Relative Avg AREc32 EC2X Relative to RTA402 (fold)” value turned out to be 0.984 ± 0.119 fold.
Consider `Cc1noc(C[C@]23CC[C@@H](C)[C@H](C)[C@H]2[C@H]2C(=O)C=C4[C@@]5(C)C=C(C#N)C(=O)C(C)(C)[C@@H]5CC[C@@]4(C)[C@]2(C)CC3)n1` [Compound T96], for which, in assay [1] (setting [5]), the IC50 came to 13.3 ± 3.7 nM. In addition, the “Avg NO IC50 Relative to RTA402 (fold)” value in assay [1] turned out to be 7.08 ± 3.49 fold. Also, the EC (2-fold) in assay [2] (setting [7]) was 10.6 ± 0.7 nM. The “Relative Avg AREc32 EC2X Relative to RTA402 (fold)” value in assay [2] (Table 2) amounted to 1.32 ± 0.21 fold.
For `C[C@@H]1[C@H]2[C@H]3C(=O)C=C4[C@@]5(C)C6O[C@@]6(C#N)C(=O)C(C)(C)[C@@H]5CC[C@@]4(C)[C@]3(C)CC[C@@]2(NC(=O)C(C)(F)F)CC[C@H]1C` (stereo partly shown) [Compound T100] the same measures were 60.6 ± 0.9 nM, 28.1 ± 9.62 fold, 29.4 ± 3.69 nM and 2.87 ± 0.59 fold.
On the same counts, the results for `COCc1noc([C@]23CC[C@@H](C)[C@H](C)[C@H]2[C@H]2C(=O)C=C4[C@@]5(C)C=C(C#N)C(=O)C(C)(C)[C@@H]5CC[C@@]4(C)[C@]2(C)CC3)n1` [Compound T3] are 5.1 ± 1.02 nM, 2.51 ± 0.94 fold, 6.16 ± 1.02 nM and 0.598 ± 0.137 fold.
For `C[C@@H]1[C@H]2[C@H]3C(=O)C=C4[C@@]5(C)C=C(C#N)C(=O)C(C)(C)[C@@H]5CC[C@@]4(C)[C@]3(C)CC[C@@]2(c2nc(COC(C)(C)C)no2)CC[C@H]1C` [Compound T9] the same measures were 11.3 ± 2.4 nM, 5.37 ± 0.71 fold, 19.3 ± 4.5 nM and 1.84 ± 0.20 fold.
Turning to `C[C@@H]1[C@H]2[C@H]3C(=O)C=C4[C@@]5(C)C=C(C#N)C(=O)C(C)(C)[C@@H]5CC[C@@]4(C)[C@]3(C)CC[C@@]2(CN2C(=O)CCC2=O)CC[C@H]1C` [Compound T75], the IC50 in assay [1] (setting [5]) was found to be 3.23 ± 0.65 nM. Further, the “Avg NO IC50 Relative to RTA402 (fold)” value in assay [1] stood at 1.46 ± 0.46 fold. The EC (2-fold) in assay [2] (setting [7]) turned out to be 2.47 ± 0.64 nM. The “Relative Avg AREc32 EC2X Relative to RTA402 (fold)” value in assay [2] (Table 2) worked out at 0.242 ± 0.070 fold.
For `C[C@@H]1[C@H]2[C@H]3C(=O)C=C4[C@@]5(C)C=C(C#N)C(=O)C(C)(C)[C@@H]5CC[C@@]4(C)[C@]3(C)CC[C@@]2(CNS(=O)(=O)C2CC2)CC[C@H]1C` [Compound T33] the same measures were 6.84 ± 1.59 nM, 2.32 ± 0.42 fold, 6.93 ± 1 nM and 0.621 ± 0.137 fold.
For `[2H]C([2H])([2H])C(=O)N(C)C[C@]12CC[C@@H](C)[C@H](C)[C@H]1[C@H]1C(=O)C=C3[C@@]4(C)C=C(C#N)C(=O)C(C)(C)[C@@H]4CC[C@@]3(C)[C@]1(C)CC2` [Compound T37] the same measures were 5.76 ± 1.38 nM, 2.08 ± 0.31 fold, 6.04 ± 2.15 nM and 0.486 ± 0.047 fold.
Regarding `CC1(C)CC[C@]2(N3CCC3=O)CC[C@]3(C)[C@H](C(=O)C=C4[C@@]5(C)C=C(C#N)C(=O)C(C)(C)[C@@H]5CC[C@]43C)[C@@H]2C1` [CC74, reference compound], the IC50 in assay [1] (setting [3]) was 4.3 nM. Moreover, the EC (2-fold) in assay [2] (setting [4]) turned out to be 36.1 nM.
As for `COC(=O)N[C@]12CC[C@@H](C)[C@H](C)[C@H]1[C@H]1C(=O)C=C3[C@@]4(C)C=C(C#N)C(=O)C(C)(C)[C@@H]4CC[C@@]3(C)[C@]1(C)CC2` [Compound T66], in assay [1] (setting [5]), the IC50 is 11 ± 3 nM. For the same compound, the “Avg NO IC50 Relative to RTA402 (fold)” value in assay [1] stood at 4.64 ± 0.70 fold. For the same compound, the EC (2-fold) in assay [2] (setting [7]) came out at 9.91 ± 0.25 nM. For the same compound, the “Relative Avg AREc32 EC2X Relative to RTA402 (fold)” value in assay [2] (Table 2) came out at 0.857 ± 0.057 fold.
For `CNC(=O)C[C@]12CC[C@@H](C)[C@H](C)[C@H]1[C@H]1C(=O)C=C3[C@@]4(C)C=C(C#N)C(=O)C(C)(C)[C@@H]4CC[C@@]3(C)[C@]1(C)CC2` [Compound T91] the same measures were 4.69 ± 1.87 nM, 2.44 ± 1.39 fold, 2.96 ± 0.77 nM and 0.359 ± 0.078 fold.
Consider `C[C@@H]1[C@H]2[C@H]3C(=O)C=C4[C@@]5(C)C=C(C#N)C(=O)C(C)(C)[C@@H]5CC[C@@]4(C)[C@]3(C)CC[C@@]2(CCC(=O)O)CC[C@H]1C` [Compound T77], for which, in assay [1] (setting [5]), the IC50 was 8.75 ± 4.81 nM. Further, the “Avg NO IC50 Relative to RTA402 (fold)” value in assay [1] worked out at 2.31 ± 0.20 fold. Also, the EC (2-fold) in assay [2] (setting [7]) came out at 3.16 ± 1.11 nM. Besides, the “Relative Avg AREc32 EC2X Relative to RTA402 (fold)” value in assay [2] (Table 2) turned out to be 0.263 ± 0.085 fold.
In the case of `CC1(C)CC[C@]2(CN)CC[C@]3(C)[C@H](C(=O)C=C4[C@@]5(C)C=C(C#N)C(=O)C(C)(C)[C@@H]5CC[C@]43C)[C@@H]2C1` [CC21, reference compound], the IC50 in assay [1] (setting [3]) was found to be 3.2 nM. For the same compound, in assay [2] (setting [4]), the EC (2-fold) came out at 15.8 nM.
For `CC1(C)CC[C@]2(CN3CCOC3=O)CC[C@]3(C)[C@H](C(=O)C=C4[C@@]5(C)C=C(C#N)C(=O)C(C)(C)[C@@H]5CC[C@]43C)[C@@H]2C1` [CC41, reference compound] the same measures were 1.7 nM and 5.12 nM.
`Cc1cn(C[C@]23CC[C@@H](C)[C@H](C)[C@H]2[C@H]2C(=O)C=C4[C@@]5(C)C=C(C#N)C(=O)C(C)(C)[C@@H]5CC[C@@]4(C)[C@]2(C)CC3)nn1` [Compound T49]: the IC50 in assay [1] (setting [5]) and in assay [1] (setting [6]) was 11.5 ± 2.6 nM in each case. Moreover, the “Avg NO IC50 Relative to RTA402 (fold)” value in assay [1] worked out at 3.77 ± 0.33 fold. For the same compound, the EC (2-fold) in assay [2] (setting [7]) and in assay [2] (setting [8]) was 7.97 ± 0.73 nM each time. Also, the “Relative Avg AREc32 EC2X Relative to RTA402 (fold)” value in assay [2] (Table 2) is given as 0.643 ± 0.116 fold.
